Assay results as given in patent publication US11440931B2, “Crocins compounds and uses thereof” (Jinan University, priority 2016, dated 2022).

Legend:
SH-SY5Y nerve cells [1] = assay: L-glutamic acid-damaged SH-SY5Y cell model (MTT); assay type: cell-based; conditions: summary in words
Method: (§1) 2.1 Method for Culturing SH-SY5Y Nerve Cells
(§2) The SH-SY5Y nerve cells were cultured in a DMEM culture medium (containing 5% of fetal calf serum in volume fraction) in an incubator containing 5% CO2 at 37° C., while subculturing every 3 to 4 days. Cells in a logarithmic phase were selected for experiments.
2.3 Method for Screening with L-Glutamic Acid-Damaged Models
SH-SY5Y cells were inoculated at a concentration of 5×10^3 in a 96-well plate, and then cultured for 24 h, and 100 μL of a liquid culture medium containing L-glutamic acid and a crocin-like compound was added to a 96-well plate, such that a final concentration of L-glutamic acid was 160 mM and a final medication concentration of the crocin-like compound was 10 μM, 1 μM, 0.1 μM, with each concentration in triplicate, followed by culturing for 24 h. After 24 h, a supernatant was sucked out and discarded, to each well was added 100 μL of MTT (0.5 mg/mL), followed by incubation for 4 h. A supernatant was sucked out and discarded, to each well was added 150 μL of DMSO, followed by shaking for 10 min, and a wavelength of 570 nm was selected to measure a value of absorbancy on a microplate reader^[13]. (Effective rate %=(ODcrocin-like compound−ODmodel)/(ODcontrol−ODmodel)*100).

SH-SY5Y nerve cells [2] = assay: Hydrogen peroxide-damaged SH-SY5Y cell model (MTT); assay type: cell-based; conditions: summary in words
Method: as §1, §2
2.2 Method for Screening with Hydrogen Peroxide-Damaged Models
SH-SY5Y cells were inoculated at a concentration of 5×10^3 in a 96-well plate, and then cultured for 24 h, and 100 μL of a liquid culture medium containing H2O2 and a crocin-like compound was added to the 96-well plate, such that a final concentration of H2O2 was 400 μM and a final concentration of the crocin-like compound was 10 μM, 1 μM, 0.1 μM, with each concentration in triplicate, followed by culturing for 24 h. After 24 h, a supernatant was sucked out and discarded, and to each well was added 100 μL of MTT (0.5 mg/mL), followed by incubation for 4 h. A supernatant was sucked out and discarded, to each well was added 150 μL of DMSO, followed by shaking for 10 min, and a wavelength of 570 nm was selected to measure a value of absorbancy on a microplate reader^[12]. (Effective rate %=(ODcrocin-like compound−ODmodel)/(ODcontrol−ODmodel)*100).

PC-12 cells = conditions: antioxidant effect (GSH increase, inhibition of peroxidized lipid, SOD retained); cited from earlier work

SMILES | protection effect on SY5Y cell damage models induced by L-glutamic acid (SH-SY5Y nerve cells [1]) | protection effect on SY5Y cell damage models induced by H2O2 (SH-SY5Y nerve cells [2]) | protective effect on PC-12 cells (PC-12 cells)
CC(/C=C/C=C(\C)C(=O)O[C@@H]1OC(CO[C@@H]2OC(CO)[C@@H](O)C(O)C2O)[C@@H](O)C(O)C1O)=C\C=C\C=C(C)\C=C\C=C(/C)C(=O)O[C@@H]1[C@@H](O)C[C@](O)(C(=O)O)C[C@H]1OC(=O)/C=C/c1ccc(O)c(O)c1 (stereo in doubt) [GJ-1, neocrocin B] | more excellent protection effects | – | –
COc1cc(/C=C/C(=O)OCC2O[C@@H](OCC3O[C@@H](OC(=O)/C(C)=C/C=C/C(C)=C/C=C/C=C(C)/C=C/C=C(\C)C(=O)O[C@@H]4OC(CO[C@@H]5OC(CO)[C@@H](O)C(O)C5O)[C@@H](O)C(O)C4O)C(O)C(O)[C@@H]3O)C(O)C(O)[C@@H]2O)cc(OC)c1O (stereo partly shown) [GJ-6, neocrocin G] | more excellent protection effects | more excellent protection effects | –
COc1cc(/C=C/C(=O)OCC2O[C@@H](OCC3O[C@@H](OC(=O)/C(C)=C/C=C/C(C)=C/C=C/C=C(C)/C=C/C=C(\C)C(=O)O)C(O)C(O)[C@@H]3O)C(O)C(O)[C@@H]2O)cc(OC)c1O (stereo partly shown) [GJ-7, neocrocin F] | more excellent protection effects | – | –
CCOC(=O)/C(C)=C/C=C/C(C)=C/C=C/C=C(C)/C=C/C=C(\C)C(=O)O[C@@H]1O[C@H](CO[C@@H]2O[C@H](CO)[C@@H](O)[C@H](O)[C@H]2O)[C@@H](O)[C@H](O)[C@H]1O [GJ-8, neocrocin H] | more excellent protection effects | more excellent protection effects | –
C\C(C=O)=C/C=C/C(C)=C/C=C/C=C(C)/C=C/C=C(\C)C(=O)O[C@@H]1OC(CO[C@@H]2OC(CO)[C@@H](O)C(O)C2O)[C@@H](O)C(O)C1O (stereo partly shown) [GJ-9, neocrocin I] | more excellent protection effects | – | –
CC(/C=C/C=C(\C)C(=O)O)=C\C=C\C=C(C)\C=C\C=C(/C)C(=O)O[C@@H]1OC(CO[C@@H]2OC[C@@H](O)C(O)C2O)[C@@H](O)C(O)C1O (stereo partly shown) [GJ-10, neocrocin J] | more excellent protection effects | more excellent protection effects | –
CC(/C=C/C=C(\C)C(=O)O[C@@H]1O[C@H](CO[C@@H]2O[C@H](CO)[C@@H](O)[C@H](O)[C@H]2O)[C@@H](O)[C@H](O)[C@H]1O)=C\C=C\C=C(C)\C=C\C=C(/C)C(=O)O[C@@H]1O[C@H](CO[C@@H]2O[C@H](CO)[C@@H](O)[C@H](O)[C@H]2O)[C@@H](O)[C@H](O)[C@H]1O [crocin-1, crocin digentiobioside] | – | – | protective effect on PC-12 cells
